Reference: patent US9353082B2, “Pharmaceutical compounds” (BIAL—PORTELA & CA, S.A., priority 2008, dated 2016)

Each compound was assayed against T1, FAAH (Rattus norvegicus, UniProt P97612) (assay: In vitro FAAH activity in rat brain membranes, 3H-AEA substrate, % of control). Settings: 100 nM test compound, low value = strong inhibitor.
T1 construct: Frozen brains (without cerebellum) from Wistar rats were used; from tissue; host or cells: Wistar rat brain (without cerebellum), washed membrane pellets
T1 sequence (P97612 1-579): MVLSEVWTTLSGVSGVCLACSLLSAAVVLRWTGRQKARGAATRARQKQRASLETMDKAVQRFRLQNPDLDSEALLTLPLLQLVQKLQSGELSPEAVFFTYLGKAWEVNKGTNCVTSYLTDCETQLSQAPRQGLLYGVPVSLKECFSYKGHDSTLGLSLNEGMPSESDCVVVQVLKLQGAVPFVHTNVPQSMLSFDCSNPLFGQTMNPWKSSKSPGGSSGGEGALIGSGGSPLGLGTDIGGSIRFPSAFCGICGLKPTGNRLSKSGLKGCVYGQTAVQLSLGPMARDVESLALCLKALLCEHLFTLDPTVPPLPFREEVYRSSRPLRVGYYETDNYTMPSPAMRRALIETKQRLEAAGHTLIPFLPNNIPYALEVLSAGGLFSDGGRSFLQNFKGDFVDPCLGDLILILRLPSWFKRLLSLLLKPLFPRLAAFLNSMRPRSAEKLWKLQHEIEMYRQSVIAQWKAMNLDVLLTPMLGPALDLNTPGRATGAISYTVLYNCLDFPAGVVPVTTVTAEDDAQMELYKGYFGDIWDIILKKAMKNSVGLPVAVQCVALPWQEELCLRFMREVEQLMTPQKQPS
Type: biochemical, Wistar rats
Procedure: 3. Biological Efficacy of Compounds of the Invention The in vitro test was performed according to the protocol described below. The controls for both in vitro and in vivo were the reaction mix minus the test compounds. Therefore, a low value in Table 1 below for the test compounds indicates a strong inhibitor.
The in vitro pharmaceutical FAAH activity was determined according to the following method:
Frozen brains (without cerebellum) from Wistar rats were used, and each brain was homogenized in 15 ml 1 mM MgCL2, […] HEPES pH 7.0 with Potter Elvejhem (8 strokes at 500 rpm). Homogenates were centrifuged for 20 min at 36000 g at 4° C. (Beckman, 70Ti rotor). Pellets were resuspended in 15 ml of the same buffer and centrifuged under the same conditions. Pellets were resuspended in 15 ml of the same buffer and incubated for 15 min at 37° C. after which they were centrifuged for 20 min at 36000 g at 4° C. Each pellet was then resuspended in 15 ml 3 mM MgCl2, 1 mM EDTA, 50 mM Tris pH 7.4 and protein determined with BioRad Protein Assay (BioRad) using a standard curve of BSA (50-250 μg/ml). The membrane suspensions were aliquoted and stored at −80° C.
The FAAH activity was determined using AEA (labelled with 3H in the ethanolamine part of the molecule) as substrate and measuring the 3H-ethanolamine formed. Reaction mix (total volume of 200 up contained: 2 μM AEA (2 μM AEA+5 nM 3H-AEA), 0.1% fatty acid free BSA, 5 μg protein, in 1 mM EDTA, 10 mM Tris pH 7.6 and 10 μM or 0.1 μM compounds. Stock solutions of the compounds to test (10 mM) were prepared in 100% DMSO and the DMSO concentration in the assay was 0.1%. After a 15 min preincubation period at 37° C., reaction was started by the addition of the substrate solution ([…]). Reaction was carried out for 10 min before termination by the addition of 400 μl activated charcoal suspension (8 g charcoal in 32 ml 0.5 M HCl in continuous agitation). After a 30 min incubation period at room temperature with agitation, charcoal was sedimented by centrifugation in microfuge (10 min at 13000 rpm). 200 μl of the supernatant were added to 800 μl Optiphase Supermix scintillation cocktail previously distributed in 24-well plates. Counts per minute (cpm) were determined in Microbeta TriLux scintillation counter (10 min counting or until s=2).
In each assay blanks (no protein, usually below 200 cpm) and controls (no compound) were present. The results are reported in Table 1 as % of control after blank subtraction.

Compound | In Vitro FAAH activity, 100 nM
O=C(N1CCCc2ccccc21)n1cnc(-c2ccc(F)cc2)c1 [Compound 44, (3,4-dihydroquinolin-1(2H)-yl)(4-(4-fluorophenyl)-1H-imidazol-1-yl)methanone] | 97.8 % of control
CN(C(=O)n1cnc(-c2ccccc2F)c1)c1ccc(F)cc1 [Compound 45, 4-(2-fluorophenyl)-N-(4-fluorophenyl)-N-methyl-1H-imidazole-1-carboxamide] | 83 % of control
O=C(N1CCOCC1)n1ccc2cc(F)ccc21 [Compound 46, (5-fluoro-1H-indol-1-yl)(morpholino)methanone] | 104.3 % of control
COc1ccc2c(ccn2C(=O)N2CCOCC2)c1 [Compound 47, (5-methoxy-1H-indol-1-yl)(morpholino)methanone] | 97.2 % of control
O=C(N1CCOCC1)n1ccc2cc(O)ccc21 [Compound 52, (5-hydroxy-1H-indol-1-yl)(morpholino)methanone] | 102.7 % of control
CN(C(=O)n1cnc(-c2ccc(O)cc2)c1)c1ccc(F)cc1 [Compound 54, N-(4-fluorophenyl)-4-(4-hydroxyphenyl)-N-methyl-1H-imidazole-1-carboxamide] | 91 % of control
O=C(Nc1ccc(Oc2ccccc2)cc1)n1nnc2ccccc21 [Compound 56, N-(4-phenoxyphenyl)-1H-benzo[d][1,2,3]triazole-1-carboxamide] | 90.7 % of control
COc1ccc(NC(=O)n2nnc3ccccc32)cc1 [Compound 57, N-(4-methoxyphenyl)-1H-benzo[d][1,2,3]triazole-1-carboxamide] | 96.9 % of control
O=C(Nc1ccc(F)cc1F)n1nnc2ccccc21 [Compound 59, N-(2,4-difluorophenyl)-1H-benzo[d][1,2,3]triazole-1-carboxamide] | 100.4 % of control
O=C(Nc1ccccc1)n1nnc2ccccc21 [Compound 60, N-phenyl-1H-benzo[d][1,2,3]triazole-1-carboxamide] | 93.8 % of control
O=C(Nc1ccc(Cl)cc1)n1nnc2ccccc21 [Compound 62, N-(4-chlorophenyl)-1H-benzo[d][1,2,3]triazole-1-carboxamide] | 93.7 % of control
COc1ccc(-c2ncn(C(=O)N(C)c3ccccc3)n2)cc1 [Compound 64, 3-(4-methoxyphenyl)-N-methyl-N-phenyl-1H-1,2,4-triazole-1-carboxamide] | 67.9 % of control
COc1ccc(-c2ncn(C(=O)N3CCOCC3)n2)cc1 [Compound 65, (3-(4-methoxyphenyl)-1H-1,2,4-triazol-1-yl)(morpholino)methanone] | 86.5 % of control
COc1ccc(-c2ncn(C(=O)N(C)c3ccc(F)cc3)n2)cc1 [Compound 66, N-(4-fluorophenyl)-3-(4-methoxyphenyl)-N-methyl-1H-1,2,4-triazole-1-carboxamide] | 80.9 % of control
CN(C(=O)n1cnc(-c2ccc(Cl)cc2)n1)c1ccccc1 [Compound 67, 3-(4-chlorophenyl)-N-methyl-N-phenyl-1H-1,2,4-triazole-1-carboxamide] | 61 % of control
O=C(N1CCOCC1)n1cnc(-c2ccc(Cl)cc2)n1 [Compound 68, (3-(4-chlorophenyl)-1H-1,2,4-triazol-1-yl)(morpholino)methanone] | 73.5 % of control

Compound | In Vitro FAAH activity, 100 nM
CN(C(=O)n1cnc(-c2ccc(Cl)cc2)n1)c1ccc(F)cc1 [Compound 69, 3-(4-chlorophenyl)-N-(4-fluorophenyl)-N-methyl-1H-1,2,4-triazole-1-carboxamide] | 80.8 % of control
O=C(N1CCOCC1)n1nc(Cl)c2ccccc21 [Compound 72, (3-chloro-1H-indazol-1-yl)(morpholino)methanone] | 87.6 % of control
O=C(N1CCOCC1)n1cnc(-c2ccccc2)n1 [Compound 73, morpholino(3-phenyl-1H-1,2,4-triazol-1-yl)methanone] | 85.8 % of control
CN(C(=O)n1cnc(-c2ccccc2)n1)c1ccc(F)cc1F [Compound 74, N-(2,4-difluorophenyl)-N-methyl-3-phenyl-1H-1,2,4-triazole-1-carboxamide] | 73.2 % of control
CN(C(=O)n1nnc2ccccc21)c1ccc(N2CCOCC2)cc1 [Compound 76, N-methyl-N-(4-morpholinophenyl)-1H-benzo[d][1,2,3]triazole-1-carboxamide] | 97.1 % of control
COc1cc(OC)cc(N(C)C(=O)n2nnc3ccccc32)c1 [Compound 77, N-(3,5-dimethoxyphenyl)-N-methyl-1H-benzo[d][1,2,3]triazole-1-carboxamide] | 76.3 % of control
O=C(N1CCOCC1)n1cnc(-c2ccc(F)cc2F)n1 [Compound 78, (3-(2,4-difluorophenyl)-1H-1,2,4-triazol-1-yl)(morpholino)methanone] | 81.9 % of control
CN(C(=O)n1cnc(-c2ccc(F)cc2F)n1)c1ccc(F)cc1F [Compound 80, N,3-bis(2,4-difluorophenyl)-N-methyl-1H-1,2,4-triazole-1-carboxamide] | 89.5 % of control
CN(C)c1ccc(N(C)C(=O)n2nnc3ccccc32)cc1 [Compound 81, N-(4-(dimethylamino)phenyl)-N-methyl-1H-benzo[d][1,2,3]triazole-1-carboxamide] | 49.2 % of control
Cl.O=C(N1CCC(N2CCCCC2)CC1)n1nnc2ccccc21 [Compound 82, 1,4′-bipiperidin-1′-yl(1H-benzo[d][1,2,3]triazol-1-yl)methanone hydrochloride] | 69.3 % of control
CN1CCN(C(=O)n2nnc3ccccc32)CC1.Cl [Compound 83, (1H-benzo[d][1,2,3]triazol-1-yl)(4-methylpiperazin-1-yl)methanone hydrochloride] | 2.5 % of control
CN(C(=O)n1nnc2ccccc21)c1ccccn1 [Compound 84, N-methyl-N-(pyridin-2-yl)-1H-benzo[d][1,2,3]triazole-1-carboxamide] | 62.5 % of control
CCCCCCCCCCCCNC(=O)n1nnc2ccccc21 [Compound 86, N-dodecyl-1H-benzo[d][1,2,3]triazole-1-carboxamide] | 0 % of control
O=C(Nc1ccc(-c2ccccc2)cc1)n1nnc2ccccc21 [Compound 88, N-(biphenyl-4-yl)-1H-benzo[d][1,2,3]triazole-1-carboxamide] | 105.4 % of control
O=C(N1CCOCC1)n1cc(-c2ccccc2)nn1 [Compound 89, morpholino(4-phenyl-1H-1,2,3-triazol-1-yl)methanone] | 4.5 % of control
Cl.O=C(N1CCC(N2CCOCC2)CC1)n1nnc2ccccc21 [Compound 90, (1H-benzo[d][1,2,3]triazol-1-yl)(4-morpholinopiperidin-1-yl)methanone hydrochloride] | 38.6 % of control
